Assay results reported in patent US8338473B2, “Derivatives of psammaplin A, a method for their synthesis and their uses for the prevention or treatment of cancer” (Centre National de la Recherche Scientifique, priority 2007, dated 2012).

Tests used:
[1] = tested on: prostate cancer cells (LnCap); experiment: Anti-proliferative and apoptogenic action in prostate cancer cells; format: cell-based; details: data not shown
histone H3, H3K56 = experiment: Post-translational modifications on histone proteins (mass spectrometry, SILAC); format: cell-based, human; details: U937 (and other) cells, 24 h, 5 μM
Experimental: U937 cells were grown in RPMI medium in the presence of lysine and arginine (‘light’) or istope versions, Arg10 and Lys8 (‘heavy’). […]. As controls, cell grown in heavy medium were treated for 24 h with DMSO. Light and heavy cells were 7.5×10^6 cells harvest and mixed in 1:1 ratio (total 15×10^6 cells). The cells were washed twice with PBS and the cell pellet was stored at −80° C.
Cells were resuspended in 750 μl Triton Extraction Buffer (TEB: PBS containing 0.5% Triton X 100 (v/v), 2 mM phenylmethylsulfonyl fluoride (PMSF) and 0.02% (w/v) NaN3) and lysed on ice for 10 min with gentle stirring. The lysate was centrifuged for 10 min at 6000 rpm and the supernatant discarded. The pellet was washed with 375 μl of TEB and peletted by centrifugation as before. Pellet is resuspended in 20 μl 250 mM HCl and acid extraction of the histones was performed o/n at 4° C.
Extracted histones were cleared by centrifugation and separated on a 15% acrylamide gel and the gel was stained with Coomassie. The gel region containing the histones was sliced, reduced and alkylated in gel. Proteins were digested o/n with trypsin (Promega). Peptides were eluted from the gel with trifluoroacetic acid. […]
U937 cells were treated with UVI5008 for 24 hrs and histones were acid extracted. Proteins were digested with trypsin and the peptides were analysed using a nanoLC that is online with a FT-ICR mass spectrometer. […]

TRAIL promoter = experiment: Histone H3 acetylation at the TRAIL locus (Chip and qPCR) in U937 cells; format: cell-based, human; details: U937, time course
Experimental: FIG. 5: a) Analysis of the histone H3 acetylation levels on the TRAIL promoter regulatory region and on the TRAIL gene first intron carried out Chip and qPCR in U937 cells after the indicated time course with UVI5008; the ‘NoAb’ represents the negative control; b) TRAIL mRNA expression after the indicated times of incubation with UVI5008; G6PDH levels have been used for equal loading; c) TRAIL protein expression levels measured by ELISA assay in U937 cells after 24 hrs treatment with UVI5008.

p53 = p53 acetylation in MCF7 cells (Western blot); format: cell-based, human; details: MCF7, 6 hrs, co-treatment with Etoposide 25 μM
Experimental: FIG. 13B: western blot of MCF7 cells treated with etoposide alone or in presence of sirtinol (a known SIRT2 inhibitor) and with uvi5008 concentrations of 50 μM and 5 μM.
MCF7 cells (human breast cancer cells) have been growth following standard procedure and have been treated for 6 hrs with the indicated compounds in presence of 25 μM Etoposide. Total protein extracts have been run on SDS gel and blotted. Western Blot has been carried out by using the anti p53 ac382 (Abcam) following standard procedures. ERKs (Santa Cruz) have been used for equal loading control.

U937 cells = experiment: Caspase 3 apoptotic assay in U937 cells; format: cell-based, human; details: U937, 24 hrs
Experimental: (§1) FIG. 1: a) Cell cycle analysis of U937 cells treated for 30 hrs with the indicated compounds used at 1 and 5 μM; b) Caspase 3 apoptotic assay of the indicated compounds after 24 hrs of treatment in the U937 cells; c) Tubulin acetylation and p21 expression levels at 6 and 16 hrs after treatment with the indicated compounds; total tubulin expression levels are used for equal loading; d) Histone H3 acetylation and K9 H3 methylation expression levels at 6 and 16 hrs after treatment with the indicated compounds; total tubulin expression levels are used for equal loading; e) K9, K14, K18 histone H3 acetylation expression levels at 6 and 16 hrs after treatment with the indicated compounds; total ERKs expression levels are used for equal loading; f) HDAC1 enzymatic assay: IP-HDAC1 is incubated with the indicated inhibitors for 24 Hrs; activity is measured as ^3H-acetyl release; g) HDAC4 enzymatic assay: IP-HDAC4 is incubated with the indicated inhibitors for 24 hrs; activity is measured as ^3H-acetyl release.

p16INK4a = experiment: p16 expression levels in U937 cells; format: cell-based, human; details: U937, 24 hrs
Experimental: FIG. 2: a) Methylation specific PCR for the RARβ gene after 16 and 24 hrs of treatment with the indicated compounds; b) Methylation specific PCR for the p16 gene after 24 hrs of the indicated treatments. Samples are representative of real duplicates; c) p16 expression levels in U937 cells after 24 hrs with the indicated treatments; d) DNMT enzymatic in vitro assay carried out with 1.5 and 50 μM of the indicated compounds;
(§2) For the determination of p21^WAF1/CIP1 and p16^INK4 100 μg of total protein extracts were separated on a 15% polyacrylammide gels and blotted. Western blots were shown for p21 (Transduction Laboratories, dilution 1:500), p16 (Santa Cruz) and total ERKs (Santa Cruz) were used to normalise for equal loading. For alpha-tubulin acetylation 25 μg of total protein extracts were separated on a 10% polyacrylamide gels and blotted. Western blots were shown for acetylated alpha-tubulin (Sigma, dilution 1:500) and total ERKs (Santa Cruz) or total tubulin (Sigma) were used to normalise for equal loading.

histone H3 = experiment: Histone H3 acetylation and K9 H3 methylation levels in U937 cells; format: cell-based, human; details: U937, 6 and 16 hrs
Experimental: as §1, §2

A-375 cells = experiment: MTT cytotoxicity assay, A-375; details: read-out: IC50 values, MTT cytotoxicity assay; A-375, 48 h
Experimental: Plates were kept in the humidified CO2 (5%) incubator overnight so that cells get attached to the bottom. […] Viable cells cleave the MTT tetrazolium ring into a dark blue formazan reaction product, whereas dead cells remain colorless. The MTT-containing medium was gently removed and DMSO was added in each well. After shaking, the plates were read in absorbance at 540 nm. All results are expressed as the average of three wells. Percent cytotoxicity was measured of each compound and represented in terms of its IC50 values.

O=C(NCCSSCCNC(=O)C(Cc1c[nH]c2ccc(Br)cc12)=NO)C(Cc1c[nH]c2ccc(Br)cc12)=NO [UVI5008] was tested, and the “anti-proliferative and apoptogenic action” value [1] was “confirmed”, the “post-translational modifications on histone proteins” value (histone H3, H3K56) was “identification of a novel acetylated lysine residue in histone H3, H3K56” and the “H3K9 acetylation of the chromatin at the TRAIL promoter” value (TRAIL promoter) was “rapid dramatic H3K9 acetylation”. The “p53 acetylation levels (readout of SIRT inhibition)” value (p53) was “hyperacetylation”, the “apoptogenic effect (caspase 3)” value (U937 cells) was “strongest apoptogenic effect” and the p16INK4a gene expression (p16INK4a) was “de-silenced”. The “H3K9, H3K14 and H3K18 acetylations” value (histone H3) was “all increased”, the “global histone H3 acetylation” value (histone H3) was “dramatically enhanced” and the “methylation of H3K9” value (histone H3) was “decreased”. The IC50 (A-375 cells) was 3.1 ± 0.5 µM.
